Source: patent EP0539170A1, “Benzodiazepine derivatives and their use as antagonists of cholecystokinin and/or gastrin receptors” (priority 1991, dated 1993)
Counter-ions that a name gives are not always drawn.

These compounds were tested against T1, CCK Receptor (Pancreas) (Rattus norvegicus, UniProt P30551) (assay: CCK Receptor Binding (Pancreas), inhibition of specific 125I-CCK-8 binding). Conditions: rat whole pancreas membranes; 50 pM 125I-CCK-8; 25°C for 2 hours.
T1 construct: The whole pancreas was dissected free of fat tissue and was homogenized; from tissue; host or cells: rat pancreas membrane homogenate
T1 sequence (P30551 1-444): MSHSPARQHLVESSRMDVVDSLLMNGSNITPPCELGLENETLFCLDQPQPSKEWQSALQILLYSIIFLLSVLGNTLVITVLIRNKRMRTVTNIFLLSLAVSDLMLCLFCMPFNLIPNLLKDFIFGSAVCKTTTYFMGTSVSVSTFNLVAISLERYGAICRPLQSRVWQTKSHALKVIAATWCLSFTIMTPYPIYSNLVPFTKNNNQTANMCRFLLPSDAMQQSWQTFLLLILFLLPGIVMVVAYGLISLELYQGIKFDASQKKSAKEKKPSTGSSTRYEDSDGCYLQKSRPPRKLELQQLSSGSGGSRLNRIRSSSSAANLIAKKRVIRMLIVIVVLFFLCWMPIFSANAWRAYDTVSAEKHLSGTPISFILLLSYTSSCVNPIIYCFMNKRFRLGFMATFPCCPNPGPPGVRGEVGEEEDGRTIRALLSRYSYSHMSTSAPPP
Design: species or system Sprague-Dawley rats
Description: CCK-8 sulphated was radiolabelled with ¹²⁵I-Bolton Hunter reagent (2000 Ci/mmole). Receptor binding was performed according to Chang and Lotti (Proc. Natl. Acad. Sci. 83, 4923-4926, 1986) with minor modifications.
Male Sprague-Dawley rats (150-200g) were sacrificed by decapitation. The whole pancreas was dissected free of fat tissue and was homogenized in 25 volumes of ice-cold 10 mM N-2-hydroxyethyl-piperazine-N′-2-ethane sulphonic acid (HEPES) buffer with 0.1% soya bean trypsin inhibitor (pH 7.4 at 25°C) with a Kinematica Polytron. The homogenates were centrifuged at 47,800 g for 10 min. Pellets were resuspended in 10 volumes of binding assay buffer (20mM (HEPES)), 1mM ethylene glycol-bis-(β-aminoethylether-N,N′-tetraacetic acid) (EGTA), 5mM MgCl₂, 150 mM NaCl, bacitracin 0.25 mg/ml, soya bean trypsin inhibitor 0.1 mg/ml, and bovine serum albumin 2 mg/ml pH 6.5 at 25°C) using a Teflon (trademark) homogenizer, 15 strokes at 500 rpm. The homogenate was further diluted in binding assay buffer to give a final concentration of 0.5 mg original wet weight/1 ml buffer. […] All assays were run in duplicate. The reaction mixtures were incubated at 25°C for 2 hours and the reaction terminated by rapid filtration (Brandell 24 well cell harvester) over Whatman GF/C filters, washing 3 x 4 mls with ice-cold 100 Mm NaCl. The radioactivity on the filters was counted with a LKB gamma counter.
Drug displacement studies were performed with at least 10 concentrations of compounds of Formula I and the IC₅₀ values were determined by regression analysis IC₅₀ refers to the concentration of the compound required to inhibit 50% of specific binding of ¹²⁵I-CCK-8.

`CCCN1C(=O)C(NC(=O)Nc2ccc3c(c2)CCC3)N=C(N2CCN(C)CC2)c2ccccc21` (single isomer, unassigned; (-)) [Example 34, (-)-N-[2,3-Dihydro-5-(4-methylpiperazin-1-yl)-2-oxo-1-propyl-1H-1,4-benzodiazepin-3-yl]-N′-[5-indanyl] urea] and `CCCN1C(=O)C(NC(=O)Nc2cccc(C)c2)N=C(N2CCN(C)CC2)c2ccccc21` (single isomer, unassigned; (-)) [Example 24, (-)-N-(2,3-Dihydro-5-(4-methylpiperazin-1-yl)-2-oxo-1-propyl-1H-1,4-benzodiazepin-3-yl]-N′-[3-methylphenyl] urea] cannot be ordered by IC50: > 3000 nM for the first, > 3000 nM for the second.

`Cc1ccc(NC(=O)NC2N=C(N3CCN(C)CC3)c3ccccc3N(C)C2=O)cc1` (racemic) [Example 6, N-[3(R,S)-2,3-Dihydro-1-methyl-5-(4-methylpiperazin-1-yl-2-oxo-1H-1,4-benzodiazepin-3-yl] N′-[4-methylphenyl]urea] and `CN1CCN(C2=NC(NC(=O)Nc3ccc(Cl)cc3)C(=O)N(C)c3ccccc32)CC1` (racemic) [Example 7, N-[3(R,S)-2,3-Dihydro-1-methyl-5-(4-methylpiperazin-1-yl-2-oxo-1H-1,4-benzodiazepin-3-yl] N′-[4-chlorophenyl]urea] cannot be ordered by IC50: > 3000 nM for the first, > 3000 nM for the second.

Going from `CCCN1C(=O)C(NC(=O)Nc2cccc(C)c2)N=C(N2CCNCC2)c2ccccc21` (racemic) [Example 36, N-[3(R,S)-2,3-Dihydro-2-oxo-5-(piperazin-1-yl)-1-propyl-1H-1,4-benzodiazepin-3-yl]-N′-[3-methylphenyl] urea] to `Cc1cccc(NC(=O)NC2N=C(N3CCCC3)c3ccccc3N(C)C2=O)c1` (racemic) [Example 2, N-[3(R,S)-2.3-Dihydro-1-methyl-2-oxo-5-(pyrrolidin-1-yl)-1H-1,4-benzodiazepin-3-yl] N′-[3-methylphenyl] urea], the IC50 falls from > 3000 nM to 612 nM. The second is the more potent here.

First: CN1C(=O)C(NC(=O)Nc2ccccc2)N=C(N2CCCCCC2)c2ccccc21 (racemic) [Example 66, N-[3(R,S)-2,3-Dihydro-5-(homopiperidin-1-yl)-1-methyl-2-oxo-1H-1,4-benzodiazepin-3-yl]-N′-phenyl urea]
Second: CN1C(=O)C(NC(=O)Nc2cccc(F)c2)N=C(N2CCCCCC2)c2ccccc21 (racemic) [Example 60, N-[3(R,S)-2,3-Dihydro-5-(homopiperidin-1-yl)-1-methyl-2-oxo-1H-1,4-benzodiazepin-3-yl]-N′-[3-fluorophenyl] urea]
The IC50 of the first is 2-fold higher: 14.2 nM for the first, 7.16 nM for the second. The second is the more potent here.

`CCc1cccc(NC(=O)NC2N=C(N3CCN(C)CC3)c3ccccc3N(CC(C)C)C2=O)c1` (single isomer, unassigned; (-)) [Example 26, (-)-N-[2,3-Dihydro-5-(4-methylpiperazin-1-yl)-1-(2-methylpropyl)-2-oxo-1H-1,4-benzodiazepin-3-yl]-N#MIN#-[3-ethylphenyl] urea] and `CCc1cccc(NC(=O)NC2N=C(N3CCN(C)CC3)c3ccccc3N(C)C2=O)c1` (racemic) [Example 5, N-[3(R,S)-2,3-Dihydro-1-methyl-5-(4-methylpiperazin-1-yl)-2-oxo-1H-1,4-benzodiazepin-3-yl] N′-[3-ethylphenyl] urea] are within 1.5-fold of each other in IC50: 4720 nM for the first, 4320 nM for the second.

`CN1CCN(C2=NC(NC(=O)Nc3cccc(C(=O)N(C)C)c3)C(=O)N(C)c3ccccc32)CC1` (racemic) [Example 15, N-[3(R,S)-2,3-Dihydro-1-methyl-2-oxo-5-(4-methylpiperazin-1-yl)-1H-1,4-benzodiazepin-3-yl]-N′-[3-(N,N-dimethylcarboxamido)phenyl] urea] and `Cc1cccc(NC(=O)NC2N=C(N3CCN(C)CC3)c3ccccc3N(C)C2=O)c1` (racemic) [Example 4, N-[3(R,S)-2,3-Dihydro-1-methyl-5-(4-methylpiperazin-1-yl-2-oxo-1H-1,4-benzodiazepin-3-yl] N′-[3-methylphenyl]urea] cannot be ordered by IC50: > 3000 nM for the first, 4120 nM for the second.

`CCCN1C(=O)C(NC(=O)Nc2cccc(NC(C)=O)c2)N=C(N2CCN(C)CC2)c2ccccc21` (racemic) [Example 39, N-[3(R,S)-2,3-Dihydro-5-(4-methylpiperazin-1-yl)-2-oxo-1-propyl-1H-1,4-benzodiazepin-3-yl]-N#MIN#-[3-(acetylamino)phenyl] urea] and `CCCN1C(=O)C(NC(=O)Nc2cccc(NC(=O)NC)c2)N=C(N2CCN(C)CC2)c2ccccc21` (single isomer, unassigned; (+)) [Example 40, (+)-N-[2,3-Dihydro-5-(4-methylpiperazin-1-yl)-2-oxo-1-propyl-1H-1,4-benzodiazepin-3-yl]-N′-[3-(methylaminocarbonylamino)phenyl] urea] cannot be ordered by IC50: > 3000 nM for the first, > 3000 nM for the second.

First: CCc1cccc(NC(=O)NC2N=C(N3CCCCCC3)c3ccccc3N(C)C2=O)c1 (racemic) [Example 63, N-[3(R,S)-2,3-Dihydro-5-(homopiperidin-1-yl)-1-methyl-2-oxo-1H-1,4-benzodiazepin-3-yl]-N′-[3-ethylphenyl] urea]
Second: Cc1cccc(NC(=O)NC2N=C(N3CCCCCC3)c3ccccc3N(C)C2=O)c1 (racemic) [Example 20, N-[3(R,S)-2,3-Dihydro-5-(homopiperidin-1-yl)-1-methyl-2-oxo-1H-1,4-benzodiazepin-3-yl]-N′-[3-methylphenyl] urea]
The IC50 of the first is 2.3-fold lower: 4.39 nM for the first, 10 nM for the second.

First: Cc1cccc(NC(=O)NC2N=C(N3CCOCC3)c3ccccc3N(C)C2=O)c1 (racemic) [Example 3, N-[3(R,S)-2,3-Dihydro-1-methyl-5-(morpholin-4-yl)-2-oxo-1H-1,4-benzodiazepin-3-yl] N′-[3-methylphenyl] urea]
Second: Cc1cccc(NC(=O)NC2N=C(N3CCCCCCC3)c3ccccc3N(C)C2=O)c1 (single isomer, unassigned; (-)) [Example 51, (-)-N-[2,3-Dihydro-5-(heptamethyleneimin-1-yl)-1-methyl-2-oxo-1H-1,4-benzodiazepin-3-yl]-N′-[3-methylphenyl] urea hydrochloride]
The IC50 of the first is 3.8-fold lower: 505 nM for the first, 1920 nM for the second.

Going from `CCc1cccc(NC(=O)NC2N=C(N3CCN(C)CC3)c3ccccc3N(CC(C)C)C2=O)c1` (single isomer, unassigned; (+)) [Example 27, (+)-N-[2,3-Dihydro-5-(4-methylpiperazin-1-yl)-1-(2-methylpropyl)-2-oxo-1H-1,4-benzodiazepin-3-yl]-N#MIN#-[3-ethylphenyl] urea] to `CCc1cccc(NC(=O)NC2N=C(N3CCCCCC3)c3ccccc3N(C)C2=O)c1` (single isomer, unassigned; (+)) [Example 68, (+)-N-[2,3-Dihydro-5-(homopiperidin-1-yl)-1-methyl-2-oxo-1H-1,4-benzodiazepin-3-yl]-N′-[3-ethylphenyl] urea hydrochloride], the IC50 falls from 3080 nM to 3.48 nM (890-fold). The second is the more potent here.

First: CN1C(=O)C(NC(=O)Nc2ccc3c(c2)CCC3)N=C(N2CCCCCC2)c2ccccc21 (racemic) [Example 46, N-[3(R,S)-2,3-Dihydro-5-(homopiperidin-1-yl)-1-methyl-2-oxo-1H-1,4-benzodiazepin-3-yl]-N′-[5-indanyl] urea]
Second: CN1CCN(C2=NC(NC(=O)Nc3ccccc3)C(=O)N(C)c3ccccc32)CC1 (racemic) [Example 31, N-[3(R,S)-2,3-Dihydro-1-methyl-2-oxo-5-(4-methylpiperazin-1-yl)-1H-1,4-benzodiazepin-3-yl]-N′-phenyl urea]
The IC50 of the first is 120-fold lower: 28.2 nM for the first, 3450 nM for the second.
